Source: PubChem BioAssay AID179 (DTP/NCI, 2004)
pEC50, pIC50: −log10 of the molar value. Active and inactive are the calls of the source.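 The calls were made as follows: active = compounds giving half or more protection of infected cells from virus-caused growth loss, again on retest; inactive = the rest.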

Test system: CEM cells HIV-1 protection, formazan growth assay
Test: NCI AIDS Antiviral Assay
Settings: for pIC50: measured here: growth of uninfected CEM cells
Method in brief: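 Human CEM cells, uninfected and HIV-1-infected, received five drug concentrations, and growth was read by soluble formazan assay. Compounds giving at least 50% protection were retested; reproducible 100% protection defined confirmed active.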

Structure (SMILES) | pEC50 | pIC50 | outcome
O=C1CCSc2nc(-c3ccc4c(c3)OCO4)nn21 | < 3.70 | < 3.70 | –
COc1cc2c(c(OC3OC(CO)C(O)C(O)C3O)c1)C(=O)CC(c1ccc(O)cc1)O2 (stereo unspecified) | < 3.70 | 3.71 | –
O=c1cnn(C2OC(CO)C(O)C(F)C2O)c(=O)[nH]1 (stereo unspecified) | < 3.70 | < 3.70 | –
COc1ccc(-c2c3c(nc4nc(SCC(=O)c5ccc(Br)cc5)nc(N)c24)CCCC3)cc1OC | < 3.70 | 3.82 | –
CCCCCCCCC1=C(OC)C(=O)c2ccc(C)nc2C1=O | – | – | inactive
O=C1c2ccccc2-c2nnc(-c3ccc(Cl)cc3)cc21 | < 4.00 | < 4.00 | –
CCOP(=O)(OCC)C(C(=O)OC)C(=O)C(=O)Nc1cccc(O)c1 (stereo unspecified) | < 3.17 | < 3.17 | –
O=C(O)c1cccc(SS(=O)(=O)c2cccc(C(=O)O)c2)c1 | 4.56 | 3.79 | –
N#Cc1c(N=C2CCCCC2)c(C(=O)Nc2ccccc2)n2c1CCC2 | < 4.00 | < 4.00 | –
CC1=NNC(=O)C1C(C/C(=N/O)c1c[nH]c2ccccc12)C(=O)O (stereo unspecified) | < 4.00 | < 4.00 | –
O=C(N=Nc1ccc(Cl)cc1Cl)NNc1ccc(Cl)cc1Cl | < 3.70 | 4.24 | –
Cc1c(C#N)c(N)[nH]c(=S)c1C#N | < 3.70 | < 3.70 | –
Cc1nc(-n2nc(-c3ccccc3)cc2-c2ccccc2)sc1C(/C=C/c1ccc([N+](=O)[O-])cc1)=N/NC(=O)c1ccncc1 | < 4.37 | 4.43 | –
[Cu+2].[NH-]c1cc(N)ccc1O.[NH-]c1cc(N)ccc1O | – | – | inactive
CCOC(=O)c1sc2c(C(=O)OCC)n3cc(C)cc(C)c3c2c1O | – | – | inactive
C=CCC12CC(COc3ccccc3C(N)=O)OC1=Nc1ccccc1NC2=O (stereo unspecified) | < 3.70 | < 3.70 | –
NC(=O)C(=CNC(=S)NCc1ccccc1)C(N)=O | < 3.70 | < 3.70 | –
Cn1c(=O)nc2n(-c3ccc(O)cc3)c3ccccc3nc-2c1=O | – | – | inactive
COC(=O)C([C@H](NC1(c2ccccc2)c2ccccc2-c2ccccc21)C(=O)OC)N(NC(=O)OCc1ccccc1)C(=O)OCc1ccccc1 (mixture of isomers) | < 3.70 | 3.96 | –
Cc1ccc(S(=O)(=O)N2CCC3(C(/C=C/c4ccccc4)=Nc4ccccc43)C2c2ccccc2)cc1 (stereo unspecified) | – | – | inactive
COc1ccc2c3c([nH]c2c1[N+](=O)[O-])C(C)N(Cc1ccc([N+](=O)[O-])cc1)CC3 (stereo unspecified) | – | – | inactive
Cc1ccc([N+](=O)[O-])cc1NC(=O)N1CCCCC1C (stereo unspecified) | < 3.70 | < 4.00 | –

Structure (SMILES) | pEC50 | pIC50 | outcome
O=c1[nH]c2ccccc2c(O)c1/C=N/C(=S)NCCc1ccccc1 | < 3.70 | < 3.70 | –
C1CSCCSCCSCCSC1 | < 4.41 | < 4.41 | –
CNC(=O)NCCCCC(NC(=O)OCc1ccccc1)C(=O)OCc1ccccc1 (stereo unspecified) | < 4.08 | 4.22 | –
COc1ccc(C2=C(N)c3ccccc3C2=O)cc1 | < 3.70 | < 3.70 | –
Cc1ccc(S(=O)(=O)N/N=C/C=N/NS(=O)(=O)c2ccc(C)cc2)cc1 | – | – | inactive
COc1cc(-c2nn3c(C)c(-c4ccccc4)nc3s2)cc(OC)c1OC | 3.75 | < 3.70 | –
COC(=O)N(CO)CO | < 3.70 | < 3.70 | –
NP(=O)(Nc1ccccc1)Nc1ccccc1 | < 3.70 | < 3.70 | –
CC(=O)N1CCC2(C=Nc3ccccc32)CC1 | < 4.64 | < 4.64 | –
O=C(CC(=O)c1ccccc1)CC(=O)c1ccccc1 | < 4.71 | < 4.71 | –
CN1C(=O)NC2(O)c3ccccc3C(=O)C12O (stereo unspecified) | < 2.97 | < 2.97 | –
COc1ccc(NS(=O)CCc2ccccc2)cc1 (stereo unspecified) | < 3.70 | 4.64 | –
COc1ccc(C2c3cc4c(cc3OC(Nc3ccccc3)C2C)OCO4)cc1 (stereo unspecified) | < 3.70 | 4.61 | –
COc1cc(C2SC(N)=Nc3c2c(C)nn3C(=O)c2ccccc2O)cc(OC)c1OC (stereo unspecified) | < 4.70 | 6.34 | –
NS(=O)(=O)c1ccc(CNC(=O)c2ccccc2SC(=O)Oc2ccc([N+](=O)[O-])cc2)cc1 | 5.93 | 4.44 | –
CP(=O)(O)C(N)c1ccccc1 (stereo unspecified) | < 3.70 | < 3.70 | –
O=C(CCN1CCN(c2ccccc2)CC1)N1CCc2c([nH]c3ccccc23)C1c1cccnc1 (stereo unspecified) | < 4.81 | < 4.81 | –
O=C(Nc1ccc([N+](=O)[O-])cn1)Nc1ccccc1F | < 3.70 | < 3.70 | –
COc1cccc2c1C(c1cccc3ccccc13)OC2=O (stereo unspecified) | < 4.34 | 5.10 | –
COc1cc(OC)c(OC)cc1/C=C\c1nccc2ccccc12 | < 4.51 | 4.65 | –
O=C1C(C(O)(C(F)(F)Cl)C(F)(F)Cl)CCC1C(O)(C(F)(F)Cl)C(F)(F)Cl (stereo unspecified) | < 3.70 | 5.36 | –
CC(C)CCC[C@@H](C)C1CCC2[C@@H]3CCC4C[C@@H](CCC=C(c5cc(Cl)c(O)c(C(=O)O)c5)c5cc(Cl)c(O)c(C(=O)O)c5)CC[C@]4(C)C3CC[C@@]21C (stereo partly specified) | 4.49 | < 4.00 | –
